What was measured:
HSV-1 = tested on: HSV-1
Text: FIG. 2. […] A 10% w/v solution of KST-301 in DMSO was applied topically to the epidermal infection site 3×/day for 5 days. Controls animals received the same volume of the DMSO vehicle at the same intervals. Lesions were scored as 0=no visible lesions, +1=papules around the infection site, +2=papules are ulcerated around the infection site with eschar formation, +3=ulcerated zosteriform spread along peripheral nerves to the flank of the animal, +4=ulcerated lesions open on the flank, and +5=death of the animal.
The lesions were scored as in the description for FIG. 2.

rat-organ homogenates = settings: cited from earlier work
prostate cancer = test: Prostate cancer patients (Example VIII A); assay type: in vivo, human; settings: daily 10 μg to 5 mg/Kg; no significant differences between the four groups
Description: A group of 40 men aged 55-75 suffering from prostate cancer receive a daily dosage of between 10 μg and 5 mg/Kg body weight of KST-201, KST-213, KST-301 or KST-401 (10 patients per compound). Examination of the patients by clinical, radiographic and histopathological tests show significant shrinkage in tumors, and signs of cell death in 38% of the patients; there are no significant differences between the four treatment groups.

DU145 cells = test: Flow cytometric cell cycle analysis of DU145 cells; assay type: cell-based, human
Description: Initially, the mechanism(s) responsible for the antitumor activity of KST-201 were tested in the DU145 cell line. […] The cell cycle distribution of sham-treated (FIG. 4, upper left) DU145 cells or DU145 cells treated with KST-201 at 14 μM (FIG. 4, upper right), 28 μM (FIG. 4, lower left) or 56 μM (FIG. 4, lower right) were determined by flow cytometry.

bladder cancer = test: Bladder cancer patients (Example VIII B); assay type: in vivo, human; settings: intravenous 10 μg to 5 mg/kg over three months
Description: A group of 20 men and 20 women aged 50-75 with bladder cancer are treated by intravenous injection of between 10 μg and 5 mg/kg of KST-201, KST-213, KST-301 or KST-401. Each compound is given to a group of 5 men and 5 women) over a period of three months. Clinical, radiographic and histopathological tests show significant remission in 35% of patients, accompanied by signs of cell death in 45%. There are no significant differences between the results with the four compounds.

breast cancer = test: Breast cancer prevention, skin patch (Example VIII C); assay type: in vivo, human; settings: transdermal patch 10 mg to 100 mg daily, one-year study
Description: This study investigates whether KST-201, KST-213, KST-301 and KST-401 administered transdermally each day through a skin patch aid in preventing breast cancer or metastatic cancer following cancer therapy. Patches are prepared with a lipophilic carrier which is readily absorbed through the skin (glycerol cold cream containing glycerin and peanut oil). The HT compound is mixed with the lipophilic cream such that each patch comprises 10 mg to 100 mg of active compound. The patch is applied to the skin each day, and rapid absorption occurs. After two hours, the patch is removed.

colon cancer = test: Colon cancer patients (Example VIII E); assay type: in vivo, human
Description: Eight patients suffering from advanced colon cancer are treated daily for three weeks with an intravenous infusion of 2 g of the compounds KST-201, KST-213, KST-301 or KST-401 dissolved in saline. Two patients are assigned to each compound. The compounds are dissolved in sterile saline. […] Progression of the tumor is also arrested over the treatment period.
Another eight patients with terminal colon cancer are treated by daily bolus injections (intravenous or intramuscular) of 2 g of KST-201, KST-213, KST-301 or KST-401.

human recombinant COX-2 = target: T1, human recombinant COX-2 (Homo sapiens, UniProt P35354); test: COX Inhibitor Screening Assay, COX2; assay type: biochemical; settings: doses of 10 to 200 μM tested
T1 construct: purchased Cayman Chemical 560131
T1 sequence (P35354 18-604): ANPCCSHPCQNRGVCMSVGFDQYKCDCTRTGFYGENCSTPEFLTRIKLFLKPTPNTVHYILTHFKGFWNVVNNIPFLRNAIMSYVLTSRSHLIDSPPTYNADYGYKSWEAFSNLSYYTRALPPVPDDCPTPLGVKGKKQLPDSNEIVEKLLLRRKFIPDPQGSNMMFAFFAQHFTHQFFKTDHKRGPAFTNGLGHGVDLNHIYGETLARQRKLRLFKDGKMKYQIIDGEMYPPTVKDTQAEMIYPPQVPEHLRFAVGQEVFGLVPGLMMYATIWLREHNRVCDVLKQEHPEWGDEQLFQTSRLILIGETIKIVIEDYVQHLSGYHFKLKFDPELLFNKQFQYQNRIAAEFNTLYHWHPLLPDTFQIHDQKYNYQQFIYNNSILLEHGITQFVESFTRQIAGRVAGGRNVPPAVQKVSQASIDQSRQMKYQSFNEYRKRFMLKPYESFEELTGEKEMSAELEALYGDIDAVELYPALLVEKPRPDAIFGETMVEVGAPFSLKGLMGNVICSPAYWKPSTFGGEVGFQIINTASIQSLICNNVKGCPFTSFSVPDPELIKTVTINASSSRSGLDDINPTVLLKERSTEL
Text: The Cayman COX Inhibitor Screening Assay includes both ovine COX-1 and human recombinant COX-2 enzymes in order to screen isozyme-specific inhibitors.

caspase-3 = test: Caspase-3 activity in DU145 cells (fluorimetric immunosorbent enzyme assay); assay type: cell-based, human
Description: FIG. 5. Measurement of Caspase-3 Activity in Resveratrol-treated DU145 cells. […] Activity of proteolytic cleavage was determined fluorometrically using Ac-DEVD-AFC as a substrate for activated caspase-3 immobilized on the well surface. The results represent mean±SD of triplicate determinations. The positive control (“Post. Ctl”) was camptothecin-induced apoptosis in U937 cells.
FIG. 6. Measurement of Caspase-3 Activity of KST-201-treated DU145 cells as a function of dose. […] Activity of proteolytic cleavage (caspase-3 activity) and other details are as above.
FIG. 7. Time course of Caspase-3 Activation by KST201 in DU145 cells as a measure of apoptosis. DU145 cells were treated at CD50 of KST201 for 12, 24 or 48 hours. Details are as described for FIG. 5.
The proteolytic activity of caspase-3 in DU145 cells, was measured using a fluorimetric immunosorbent enzyme assay kit. […] After washing and centrifuging, the cell pellet was collected and incubated with dithiothreitol (DTT) lysis buffer on ice. The cell lysate was then transferred to a centrifuge tube for measurement of proteolytic cleavage by caspase-3 utilizing a fluorimetric immunosorbent enzyme assay kit (Roche, Indianapolis, Ind.). Antibody against caspase-3 was diluted in the coating buffer and immobilized to the surface of 96-well plates followed by washing steps. Compound-treated cell lysates and the untreated controls were added to the plate and incubated for one hour at 37° C. Any caspase-3 in the samples was captured by the immobilized antibody. The caspase-3 enzyme cleaved its fluorogenic substrate Ac-DEVD-AFC when it was added to the wells, resulting in. free fluorescent AFC that was measured in a Fluoroskan® Ascent FL plate reader (Thermo, Waltham, Mass.) with a filter set at an excitation/emission of 390 nm/[…]. The fluorescence intensity was proportional to the concentration of AFC determined by a standard curve, generated by different dilutions of AFC standard included in the kit. The amount of activated caspase-3 in the sample was derived from this curve.

[1] = intravenous infusion 2 g daily for three weeks

Oc1ccc(/C=C/c2cc(O)cc(O)c2)cc1 [Resveratrol, 3,5,4′-trihydroxy-trans-stilbene, reference compound]
Severity of HSV-1 lesions (HSV-1; 10% w/v solution in DMSO, topical 3×/day for 5 days, hairless mice): significantly reduced the severity of the lesions | Treated animals in which lesion formation was prevented (HSV-1; topical solution in DMSO): 57-67% | Treated animals showing evidence of HSV infection (HSV-1; topical solution in DMSO, controls 83-100%): 43% | Maximum (average) lesion score (HSV-1; topical solution in DMSO, scale 0 to +5, controls 3.8-4 by days 8 and 9): 0.8-1.2 | Inhibition (%) of autooxidation MDA level at 7.5 μM, In rat brain (rat-organ homogenates; rat brain): 69.93% | Inhibition (%) of autooxidation MDA level at 7.5 μM, In rat kidney (rat-organ homogenates; rat kidney): 40.37% | Inhibition (%) of autooxidation MDA level at 7.5 μM, In rat liver (rat-organ homogenates; rat liver): 67.69%

Oc1ccc(C#Cc2ccc(O)cc2)cc1 [KST-201, 4,4′-dihydroxytolan]
Patients with significant shrinkage in tumors, and signs of cell death (prostate cancer): 38% | Phase of Cell Cycle S (DU145 cells; 14 μM, untreated 40): 28 | Phase of Cell Cycle G0/G1 (DU145 cells; 14 μM, untreated 46): 72 | Phase of Cell Cycle G0/G1 (DU145 cells; 28 μM): 77 | Phase of Cell Cycle G2/M (DU145 cells; 28 μM): 3 | Phase of Cell Cycle S (DU145 cells; 28 μM): 20 | Phase of Cell Cycle G0/G1 (DU145 cells; 56 μM): 78 | Phase of Cell Cycle G2/M (DU145 cells; 56 μM): 4 | Phase of Cell Cycle S (DU145 cells; 56 μM): 18 | Effect on cell cycle (in words) (DU145 cells; 14, 28 and 56 μM): G0/G1-S cell cycle arrest | Patients with signs of cell death (bladder cancer): 45% | Patients with significant remission (bladder cancer; no differences between compounds): 35% | Breast cancer or metastatic cancer in high-risk group (breast cancer): does not show any evidence of breast cancer or other metastatic cancer | Dissemination of the tumors (colon cancer; daily bolus injections (intravenous or intramuscular) of 2 g): dissemination of the tumors is diminished | Cancer marker carcinoembryonic antigen (CEA) (colon cancer; [1]): significant reduction | Progression of the tumor (colon cancer; [1]): arrested | Inhibition of COX2 activity (human recombinant COX-2): about 50% | Caspase-3 activation (caspase-3; 0.5×CD50, 24 hr): effectively activated caspase-3 | Caspase-3 activity (caspase-3; 48 hours or 2×CD50): loss of caspase-3 activity | Caspase-3 activation (caspase-3; CD50 concentration, 24 hr): activated significantly

From patent US8716355B2, “Hydroxylated tolans and related compounds in the treatment of a cancer” (Kent State University, priority 2007, dated 2014)
